Key:
Type in all cases: cell-based, human
[1] = test system: HBL100 cells; experiment: Cell proliferation test (XTT), HBL100; conditions: HBL100, peptide 0.5% and 1%, serum-free medium, 5th hour
Procedure: (§1) HT1080 cells (A) and HBL100 cells (B) were seeded in 96-well plates at a rate of 10,000 cells per well. After 24 hours, the culture medium was removed and replaced with serum-free medium containing the peptide quantities given in the graphs and reagent XTT. The plates were then placed in the incubator at 37° C. and absorbance readings were taken at 1 h, 2 h, 3 h, 4 h and 5 h. Peptide-free controls were carried out on the same plate.
(§2) The effect of the peptide on cell proliferation was analysed with the aid of a calorimetric test (Cell Proliferation Kit XTT, Roche Diagnostics, Meylan, France) on the cells use for the cell adhesion test, i.e. HT1080, A431, HBL100 cells and normal human keratinocytes from young and elderly individuals.
(§3) The chemical reaction used in the test is based on the production of NADPH by living cells, leading to the reduction of yellow tetrazolium XTT salts to orange formazan salts. Absorbance was measured at 490 nm using an ELISA plate reader. Cells were seeded in 96-well plates at a rate of 10,000 cells per well (6 wells/condition) in KBM-2 culture medium. After 24 hours in culture at 37° C. with 5% CO2, the culture medium was removed and replaced with serum-free medium containing the peptide quantities given in the graphs and the test reagent. The plates were then placed in the incubator at 37° C. and absorbance readings were taken at 1 h, 2 h, 3 h, 4 h and 5 h. […]

[2] = test system: NHK-old; experiment: Cell adhesion of NHK-old to peptide co-immobilized with laminin 5
Procedure: The peptide (variable quantities indicated) and laminin 5 (fixed quantity 0.2 mg) were co-immobilized in 96-well plates. 3×104 NHK-8 years and 3×104 NHK-63 years were deposited in each well and plates were incubated at 37° C. for 1 hour. After washing, attached cells were fixed and cell adhesion was measured as described in the methodology section. Cell adhesion in the presence of the peptide is given as a percentage of cell adhesion obtained with laminin 5 alone.
The effect of peptide TALRIRATYGEY (SEQ ID NO. 1) on adhesion to LN5 was verified with NHK-old (FIG. 16). NHK-young ([…]) was tested in parallel and 30,000 cells/well were used in both cases (NHK-old is always limiting as it is obtained in lower amounts). In general, the results obtained in the course of this experiment are less marked than those in the experiment presented in FIG. 14 since (1) the number of cells is lower (30,000 instead of 50,000) and (2) the peptide range tested is also smaller. […] This effect, less marked than the effect found with NHK-young, is probably linked to the decreased adhesion with age of NHK-old to peptide TALRIRATYGEY (SEQ ID NO.1) (FIG. 6).

[3] = test system: HT1080 cells; experiment: Cell proliferation test (XTT), HT1080; conditions: HT1080, peptide 0.5% and 1%, serum-free medium, 5th hour
Procedure: as §1, §2, §3

## TALRIRATYGEY (Human laminin 5) [Peptide 1]
[1]
  mean increase in cell proliferation compared to the control: 8%
[2]; NHK-63 years, 30,000 cells/well, laminin 5 fixed quantity 0.2 mg
  effect on adhesion of NHK-old to LN5 (co-immobilized): potentializing effect
[2]; NHK-old vs NHK-young, 30,000 cells/well
  effect on NHK-old adhesion to LN5 compared with NHK-young: less marked
[3]
  mean increase in cell proliferation compared to the control: 8%

Source: patent publication US7645740B2, “Peptide sequence found in Laminin 5 for treating skin impairments” (Laboratoires d'Anjou Centre National de la Recherche …, priority 2004, dated 2010)
